Measured values taken from patent publication US5652359A, “Oligonucleotides containing n-methyl thiolated bases having antiviral activity” (Epoch Pharmaceuticals, Inc., priority 1993, dated 1997).
In brackets after ≈: the same amount, converted by molar mass.

Key:
HSV-2 DNA polymerase = molecular target: T1, HSV-2 DNA polymerase (Human herpesvirus 2, UniProt P89453); test: HSV DNA polymerase assay, HSV-2; type: biochemical; conditions: activated calf thymus DNA, 30 minutes at 37° C.
T1 sequence (P89453 1-1240): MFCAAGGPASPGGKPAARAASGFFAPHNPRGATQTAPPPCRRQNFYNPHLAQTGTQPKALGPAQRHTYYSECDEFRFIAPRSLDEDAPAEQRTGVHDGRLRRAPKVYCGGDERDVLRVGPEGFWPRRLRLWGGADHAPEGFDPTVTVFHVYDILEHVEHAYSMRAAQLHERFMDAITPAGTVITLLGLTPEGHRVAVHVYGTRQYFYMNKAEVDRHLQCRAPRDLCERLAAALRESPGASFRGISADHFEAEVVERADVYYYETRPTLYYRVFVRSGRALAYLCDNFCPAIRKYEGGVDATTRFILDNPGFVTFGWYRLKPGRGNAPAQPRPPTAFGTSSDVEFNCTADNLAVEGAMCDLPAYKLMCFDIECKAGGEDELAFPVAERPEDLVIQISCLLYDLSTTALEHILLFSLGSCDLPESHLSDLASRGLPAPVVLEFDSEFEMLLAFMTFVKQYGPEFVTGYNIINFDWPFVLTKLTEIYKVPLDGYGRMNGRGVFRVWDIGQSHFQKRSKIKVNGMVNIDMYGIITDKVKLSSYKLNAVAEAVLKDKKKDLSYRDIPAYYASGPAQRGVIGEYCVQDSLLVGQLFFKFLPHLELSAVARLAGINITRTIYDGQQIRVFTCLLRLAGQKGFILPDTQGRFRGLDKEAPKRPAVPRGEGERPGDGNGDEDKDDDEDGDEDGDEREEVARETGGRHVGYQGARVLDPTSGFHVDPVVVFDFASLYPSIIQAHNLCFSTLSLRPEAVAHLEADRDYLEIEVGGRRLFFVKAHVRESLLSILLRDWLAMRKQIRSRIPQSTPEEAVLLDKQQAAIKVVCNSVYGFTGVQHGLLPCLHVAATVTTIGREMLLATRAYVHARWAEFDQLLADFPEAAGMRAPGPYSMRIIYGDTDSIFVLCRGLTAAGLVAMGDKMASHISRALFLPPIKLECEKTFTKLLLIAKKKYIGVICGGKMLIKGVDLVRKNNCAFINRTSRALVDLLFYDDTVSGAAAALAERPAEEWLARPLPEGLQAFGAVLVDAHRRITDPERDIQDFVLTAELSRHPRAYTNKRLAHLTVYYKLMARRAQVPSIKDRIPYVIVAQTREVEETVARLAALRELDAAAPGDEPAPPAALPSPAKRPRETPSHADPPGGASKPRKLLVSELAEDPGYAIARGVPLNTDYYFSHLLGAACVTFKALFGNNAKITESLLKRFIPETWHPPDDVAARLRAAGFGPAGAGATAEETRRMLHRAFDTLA
Description: (§1) HSV DNA polymerases were assayed as described by Ostrander M., and Cheng Y. C., (1980) BIOCHEM. BIOPHYS. ACTA 609:232-245. The standard assay mixture (total volume 50 uL) contained 25 mM Tris-HCl pH 8, 10 mM MgCl2, 0.5 mM dithiothreitol, 0.5 mg/mL BSA, 200 mM KCl, 100 ug/mL activated calf thymus DNA, 0.1 mM each dATP, dCTP, dGTP, 5 uM [^3 H]dTTP (2 Ci/mmol), 4-5×10-^4 units of enzyme, and different drug concentrations. After incubation at 37° C. for 30 minutes, the reaction mixture was spotted on 2.4 cm Whatman GF/A glass fiber filter discs and trichloroacetic acid-insoluble radioactivity was measured.
(§2) One unit of DNA polymerase activity is defined as the amount of enzyme which catalyzes the incorporation of 1 nanomol of dTMP into activated DNA/30 min. […] IC50 is that concentration (expressed in micromoles) of the novel oligonucleotide which results in 50% inhibition of the enzyme.

HSV-1 DNA polymerase = HSV-1 DNA polymerase (Human herpesvirus 1, UniProt P04293); test: HSV DNA polymerase assay, HSV-1; type: biochemical; conditions: activated calf thymus DNA, 30 minutes at 37° C.
Chain of HSV-1 DNA polymerase (P04293 whole entry): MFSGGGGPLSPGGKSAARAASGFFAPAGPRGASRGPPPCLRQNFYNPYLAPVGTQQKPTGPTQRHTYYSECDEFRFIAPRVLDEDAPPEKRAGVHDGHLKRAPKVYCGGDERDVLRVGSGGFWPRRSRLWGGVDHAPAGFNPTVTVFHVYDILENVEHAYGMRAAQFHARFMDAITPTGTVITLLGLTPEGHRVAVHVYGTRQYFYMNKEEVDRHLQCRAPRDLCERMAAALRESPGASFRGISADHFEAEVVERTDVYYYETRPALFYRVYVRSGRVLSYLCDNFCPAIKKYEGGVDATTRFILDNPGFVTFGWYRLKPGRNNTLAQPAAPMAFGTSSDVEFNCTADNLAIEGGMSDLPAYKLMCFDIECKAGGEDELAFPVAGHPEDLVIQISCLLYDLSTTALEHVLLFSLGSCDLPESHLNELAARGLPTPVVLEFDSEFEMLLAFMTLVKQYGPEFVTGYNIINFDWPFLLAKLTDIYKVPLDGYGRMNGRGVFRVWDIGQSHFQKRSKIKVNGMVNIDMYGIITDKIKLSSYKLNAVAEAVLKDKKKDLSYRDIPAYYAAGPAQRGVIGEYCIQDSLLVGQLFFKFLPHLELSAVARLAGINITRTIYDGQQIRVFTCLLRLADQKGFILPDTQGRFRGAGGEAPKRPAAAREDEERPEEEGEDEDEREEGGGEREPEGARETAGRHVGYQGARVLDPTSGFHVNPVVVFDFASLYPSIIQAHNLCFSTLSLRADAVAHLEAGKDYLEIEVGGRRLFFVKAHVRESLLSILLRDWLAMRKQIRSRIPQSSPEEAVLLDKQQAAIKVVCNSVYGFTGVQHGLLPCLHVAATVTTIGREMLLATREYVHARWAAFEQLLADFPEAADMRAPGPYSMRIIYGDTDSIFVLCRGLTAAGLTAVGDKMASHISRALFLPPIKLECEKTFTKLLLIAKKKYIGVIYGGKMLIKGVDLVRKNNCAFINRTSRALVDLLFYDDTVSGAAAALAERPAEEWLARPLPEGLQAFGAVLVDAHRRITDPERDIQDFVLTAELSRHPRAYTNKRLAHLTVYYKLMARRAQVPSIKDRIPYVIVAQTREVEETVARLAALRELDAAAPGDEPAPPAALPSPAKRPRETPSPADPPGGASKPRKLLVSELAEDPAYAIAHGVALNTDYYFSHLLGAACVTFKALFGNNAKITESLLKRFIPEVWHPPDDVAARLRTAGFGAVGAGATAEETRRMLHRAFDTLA
Description: as §1, §2

[1] = molecular target: T2, HIV-1 reverse transcriptase (RT) (Human immunodeficiency virus type 1 group M subtype B, UniProt P04585); test: HIV reverse transcriptase assay, HIV-1; type: biochemical; conditions: RNA-dependent enzyme assay, 30 minutes at 37° C.
T2 construct: as a 66 and 51 kDa protein dimer; made in house; host or cells: bacteria
Description: HIV-1 reverse transcriptase (RT) was expressed from a recombinant plasmid in bacteria as a 66 and 51 kDa protein dimer as described by D'Aquila R. T. and Summers W. C., (1989) J. ACQUIRED IMMUNE DEFIC SYNDR 2:579-587.
The standard reaction mixture for the RNA-dependent enzyme assays contained in a 50 uL volume: 50 mM Tris-HCl, pH 7.8, 50 mM KCl, 6 mM MgCl2, 0.1 mg/mL heat-inactivated bovine serum albumin, 1 mM dithiothreitol, 0.5 0D260 units/mL template-primer Poly(rC) oligo(dG)12-18, 10 uM [^3 H]dGTP and 3.3×10^-3 units of HIV-1 RT. A unit was defined as the amount of enzyme necessary to incorporate 1 nanomol of [^3 H]dTMP into the Poly(rA)-oligo(dT)10 template in 1.0 min at 37° C. The samples were incubated for 30 minutes at 37° C., and all reactions were carried out in the linear range. Aliquot of 40 uL were spotted on glass fiber filters (Whatman GF/A) and processed for determination of trichloroacetic acid-insoluble radioactivity as described by Cheng Y. C., Dutschman G. E., Bastow K. F., Sarngadharan M. G., and Ting R. Y. C. (1987) J. BIOL CHEM 262:2187-2189. Poly(rA)-oligo(dT)10was used as template-primer.
Table 4 indicates the results obtained in this assay with examplary oligonucleotides of the invention. The oligonucleotides are identified by their respective "compound number".

[2] = molecular target: T3, HIV-2 reverse transcriptase (Human immunodeficiency virus type 2 subtype A, UniProt P04584); test: HIV reverse transcriptase assay, HIV-2; type: biochemical; conditions: RNA-dependent enzyme assay, 30 minutes at 37° C.
T3 construct: HIV REVERSE TRANSCRIPTASE ASSAY
T3 sequence (P04584 613-1171 limits assumed): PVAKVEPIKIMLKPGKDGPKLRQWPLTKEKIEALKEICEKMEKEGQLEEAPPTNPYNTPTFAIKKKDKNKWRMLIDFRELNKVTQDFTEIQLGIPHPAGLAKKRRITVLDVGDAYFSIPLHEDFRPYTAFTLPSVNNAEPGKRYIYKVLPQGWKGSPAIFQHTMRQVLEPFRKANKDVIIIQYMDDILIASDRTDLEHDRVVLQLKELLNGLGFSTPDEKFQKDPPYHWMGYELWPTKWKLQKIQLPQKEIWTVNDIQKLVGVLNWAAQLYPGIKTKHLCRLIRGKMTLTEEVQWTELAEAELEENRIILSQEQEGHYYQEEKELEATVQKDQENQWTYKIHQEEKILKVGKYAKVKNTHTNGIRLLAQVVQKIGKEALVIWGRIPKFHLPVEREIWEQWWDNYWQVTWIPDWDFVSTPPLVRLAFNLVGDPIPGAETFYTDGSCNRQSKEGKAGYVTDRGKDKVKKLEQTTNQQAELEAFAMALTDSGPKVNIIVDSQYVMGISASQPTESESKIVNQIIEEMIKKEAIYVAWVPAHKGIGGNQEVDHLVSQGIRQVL

[3] = test system: Human cytomegalovirus (HCMV), strain AD-169; test: In vitro human cytomegalovirus inhibition (plaque) assay in MRC-5 cells; type: cell-based
Description: (§3) Cells MRC-5, an immortalized line of diploid, human ([…]) embryonic lung cells were used. These can be obtained from the American Type Culture Collection, Rockville, Md.
Virus Human cytomegalovirus (HCMV), strain AD-169 were used. These can be obtained from the American Type Culture Collection, Rockville, Md.
Medium Growth medium for the MRC-5 cells consisted of Basal Medium Eagle (BME) (GIBCO BRL, Research Products Division, Life Technologies, Inc., Grand Island, N.Y. was the source of all media) with 10% fetal bovine serum (FBS) (Hyclone Laboratories, Logan Utah), 0.035% NaHCO3. Antibiotics were not used in the growth media. Test medium for dilution of HCMV and for preparation and dilution of compounds for the experiments was DMEM, 2% FBS, 0.1% NaHCO3, 50 μg gentamicin/ml.
All compounds were prepared and diluted to the concentrations indicated in test medium. Growth medium was decanted from established monolayers of MRC-5 cells in 24-well tissue culture plates (Corning Glass Works, Corning, N.Y.). One ml of virus, diluted in test medium, was placed in each well except those to be used for cell controls. One ml of sterile test medium was placed in each of these cell control wells. Virus was allowed to adsorb to the cells while plates were centrifuged at 2200 rpm for 30 minutes at room temperature. Medium was aspirated from each well of the plates and 0.8 ml of the proper compound dilution was placed in each of the test wells (2 wells/dilution). Test medium without compound was added (0.8 ml/well) to each cell control and virus control well. Plates were placed in an incubator at 37° C. in a moist atmosphere of 5% CO2, 95% air until plaques could be distinguished in the virus control wells. […] After 15 minutes, the stain was aspirated, the plates were rinsed in running tap water until the water was clear, and the plates were inverted and dried at room temperature. Plaques were counted by use of a dissecting microscope.
ED50 and CD50 values were calculated by regression analysis of the viral plaque data and the visual cell toxicity data, respectively. […] CD50 is the concentration halfway between those at which 100% and 0% cytotoxicity are seen.

[4] = Visual cell toxicity in MRC-5 cells (HCMV assay); type: cell-based; conditions: human, previous data, read-out: CD50 (cytotoxicity)
Description: as §3
All compounds were prepared and diluted to the concentrations indicated in test medium. Growth medium was decanted from established monolayers of MRC-5 cells in 24-well tissue culture plates (Corning Glass Works, Corning, N.Y.). One ml of virus, diluted in test medium, was placed in each well except those to be used for cell controls. One ml of sterile test medium was placed in each of these cell control wells. Virus was allowed to adsorb to the cells while plates were centrifuged at 2200 rpm for 30 minutes at room temperature. Medium was aspirated from each well of the plates and 0.8 ml of the proper compound dilution was placed in each of the test wells (2 wells/dilution). Test medium without compound was added (0.8 ml/well) to each cell control and virus control well. Plates were placed in an incubator at 37° C. in a moist atmosphere of 5% CO2, 95% air until plaques could be distinguished in the virus control wells. […] Plaques were counted by use of a dissecting microscope.
ED50 and CD50 values were calculated by regression analysis of the viral plaque data and the visual cell toxicity data, respectively. […]

Row | Compound | IC50 (HSV-2 DNA polymerase) [nM] | IC50 (HSV-1 DNA polymerase) [nM] | IC50 [1] [nM] | IC50 [2] [nM] | # of plaques ([3]; 0.32 μg/ml) | # of plaques ([3]; 1.0 μg/ml) | # of plaques ([3]; 3.2 μg/ml) | # of plaques ([3]; 10 μg/ml) | Therapeutic Index TI = CD50/ED50 ([3]; HCMV, MRC-5 cells) | inhibition at 0.32 µg/mL ([3]; Human betaherpesvirus 5, AD169, MRC5, 0.32 μg/ml, read-out: % reduction (plaques)) [%] | inhibition at 1 µg/mL ([3]; Human betaherpesvirus 5, AD169, MRC5, 1.0 μg/ml, read-out: % reduction (plaques)) [%] | inhibition at 3.2 µg/mL ([3]; Human betaherpesvirus 5, AD169, MRC5, 3.2 μg/ml, read-out: % reduction (plaques)) [%] | inhibition at 10 µg/mL ([3]; Human betaherpesvirus 5, AD169, MRC5, 10 μg/ml, read-out: % reduction (plaques)) [%] | EC50 ([3]; Human betaherpesvirus 5, AD169, MRC5, regression analysis of viral plaque data, read-out: ED50 (plaques reduced to 50% of virus controls)) [µg/mL] | CC50 [4] [µg/mL]
1 | 5[dCyd3P(S)(O)]27dCyd [SdC28] | 90 | 30 | 15 ± 4 | 71 ± 11 |  |  |  |  |  |  |  |  |  |  | 
2 | Nc1nc(O)c2ncn(COC(CO)CO)c2n1 [DHPG, Ganciclovir] |  |  |  |  | 39.5 | 33.5 | 10.5 | 0.0 | > 588 | 14 | 27 | 77 | 100 | 1.7 (≈ 6.66 µM) | > 1000
